Reference: US20240100131A1, “NOVEL USE OF MPK38/MELK AS THERAPEUTIC AGENT FOR OBESITY OR METABOLIC DISEASES SPECIFIC TO MIDDLE-AGED MEN” (priority 2021, published 2024)
Where a SMILES comes first, the peptide text is derived from it. The star is where a group is joined. Cbz = O=C(OCc1ccccc1)*

Assays:
MPK38 = test: Immunoblot analysis of MPK38 stability and ubiquitination in adipocytes treated with DHT or E2; assay type: cell-based, mouse; conditions: for stability of MPK38: adipocytes of 4.5-month-old male and female mice, 10 nM, 24 hours, then cycloheximide 20 μg/ml; for endogenous ubiquitination of MPK38: adipocytes, regardless of gender
Procedure: In order to determine whether or not sex hormones such as testosterone and estrogen affect the kinase activity and expression of MPK38, immunoblot analysis was performed on adipocytes derived from 4.5-month-old normal male and female mice treated with DHT and E2.

MPK38-Mdm2 complex = test: Endogenous MPK38-Mdm2 complex formation (immunoprecipitation/immunoblot) in adipocytes; assay type: cell-based, mouse; conditions: vs control group not treated with DHT or E2
Procedure: Furthermore, since MPK38 physically interacts with Mdm2, whether or not DHT and E2 are involved in the decomposition of MPK38 mediated by Mdm2 was determined.

MPK38-ZPR9 complex = test: Endogenous MPK38-ZPR9 complex formation in adipocytes; assay type: cell-based, mouse; conditions: both females and males
Procedure: (§1) In order to further determine whether or not testosterone increases the stability of MPK38, the effect of DHT on the formation of a complex of MPK38 with either ZPR9 or Trx was analyzed. The reason for this is that ZPR9 or Trx acts as a stabilizer or destabilizer of MPK38.

MPK38-Trx complex = test: Endogenous MPK38-Trx complex formation in adipocytes; assay type: cell-based, mouse; conditions: both females and males
Procedure: as §1

ASK1/TGF-β/p53 signaling = test: MPK38-dependent ASK1/TGF-β/p53 signaling in adipocytes treated with DHT or E2; assay type: cell-based, mouse; conditions: vs control group not treated with DHT or E2; H2O2, TGF-β1 or 5FU stimulation
mouse hepatocytes = test: Effects of DHT and E2 on lipid metabolism and MPK38 kinase activity in hepatocytes; assay type: cell-based; conditions: 10 nM each, compared with adipocytes
[1] = system: castrated MPK38−/− male mice; test: Testosterone replacement in castrated male mice; assay type: in vivo, mouse
Procedure: A mixture of ketamine (34 mg/kg), xylazine (6.8 mg/kg) and acepromazine (1.1 mg/kg) was dissolved in saline, and the mice were anesthetized using this solution, and then surgery was performed. The surgical site was shaved and washed, and then sterilized with 70% alcohol. For castration, after abdomen midline incision, castration was performed such that the testes and attached fat pads were left intact. The testes were removed through an incision, but the testicular ducts and blood vessels supplying the testes were ligated with sterile silk suture and the testicular fat pads were put back, followed by closure with sterile silk suture. For sham castration, the testes with attached fat pads were exposed and put back without organ extirpation after abdominal incision, and the incision was closed with sterile silk suture. For ovariectomy, after midline abdominal incision, the uterus, oviducts, and ovaries with the fat pads were left intact. The ovaries were removed through an incision, but the oviduct and blood vessels supplying the ovaries were ligated with sterile silk suture and the ovarian fat pads were put back, followed by closure with sterile silk suture. […] After surgery, mice were monitored until they are fully recovered from anesthesia. […]

Row | SMILES | stability of MPK38 (MPK38) | endogenous ubiquitination of MPK38 (MPK38) | formation of endogenous MPK38-Mdm2 complex (MPK38-Mdm2 complex) | formation of endogenous MPK38-ZPR9 complex (MPK38-ZPR9 complex) | formation of MPK38-Trx complex (MPK38-Trx complex) | ASK1/TGF-β/p53 signaling (ASK1/TGF-β/p53 signaling) | effects on lipid metabolism and MPK38 kinase activity in liver cells (mouse hepatocytes) | stability of MPK38 on exposure to proteasome inhibitor (MPK38; 10 μM MG132, treated vs untreated group) | effects of castration on metabolism after testosterone replacement ([1]; castrated male mice, T replacement (FIG. 14)) | glucose or lipid metabolism ([1]; middle-aged (7 months old) MPK38−/− male mice, testosterone pellets 25 μg/day)
1 | C[C@]12CCC(=O)C[C@@H]1CC[C@@H]1[C@@H]2CC[C@]2(C)[C@@H](O)CC[C@@H]12 [DHT] | increased | decreased | decreased | increased | decreased | increased | similar | – | – | –
2 | C[C@]12CC[C@@H]3c4ccc(O)cc4CC[C@H]3[C@@H]1CC[C@@H]2O [E2] | decreased | increased | increased | results opposite those of treatment with DHT | results opposite those of treatment with DHT | decreased | similar | – | – | –
3 | CC(C)C[C@@H](C=O)NC(=O)[C@H](CC(C)C)NC(=O)[C@H](CC(C)C)NC(=O)OCc1ccccc1 [MG132] (Cbz-Leu-Leu-Leu-aldehyde) | – | – | – | – | – | – | – | increase | – | –
4 | C[C@]12CC[C@H]3[C@@H](CCC4=CC(=O)CC[C@@]43C)[C@@H]1CC[C@@H]2O [testosterone] | – | – | – | – | – | – | – | – | effects opposite to all of these results | did not affect
